# ChEMBL document CHEMBL3509549
# Experiments:
# [1] = Arithmetic mean of AUC(0-infinity) of saquinavir mesylate following oral repeat dosing of 1000 mg Invirase Hard Gel Capsules capsules in healthy human; format: ADME, organism-based; conditions: both, plasma, read-out: AUC(0-infinity)
# [2] = Arithmetic mean of Cmax of saquinavir mesylate following oral repeat dosing of 1000 mg Invirase Hard Gel Capsules capsules in healthy human; format: ADME, organism-based; conditions: both, plasma
# [3] = Geometric mean of Cmax of saquinavir mesylate following oral repeat dosing of 1000 mg Invirase Hard Gel Capsules capsules in healthy human; format: ADME, organism-based; conditions: both, plasma
# [4] = Median Tmax of saquinavir mesylate following oral repeat dosing of 1000 mg Invirase Hard Gel Capsules capsules in healthy human; format: ADME, organism-based; conditions: both, plasma, read-out: Median Tmax
# [5] = Minimum Tmax of saquinavir mesylate following oral repeat dosing of 1000 mg Invirase Hard Gel Capsules capsules in healthy human; format: ADME, organism-based, Plasma; conditions: in vivo
# [6] = Maximum Tmax of saquinavir mesylate following oral repeat dosing of 1000 mg Invirase Hard Gel Capsules capsules in healthy human; format: ADME, organism-based; conditions: both, plasma, read-out: Maximum Tmax
# [7] = Arithmetic mean of AUC(0-infinity) of saquinavir mesylate following oral repeat dosing of 1000 mg Invirase Film-coated tablet in healthy human; format: ADME, organism-based; conditions: both, plasma, read-out: AUC(0-infinity)
# [8] = Geometric mean of AUC(0-infinity) of saquinavir mesylate following oral repeat dosing of 1000 mg Invirase Film-coated tablet in healthy human; format: ADME, organism-based; conditions: both, plasma, read-out: AUC(0-infinity)
# [9] = Arithmetic mean of Cmax of saquinavir mesylate following oral repeat dosing of 1000 mg Invirase Film-coated tablet in healthy human; format: ADME, organism-based; conditions: both, plasma
# [10] = Geometric mean of Cmax of saquinavir mesylate following oral repeat dosing of 1000 mg Invirase Film-coated tablet in healthy human; format: ADME, organism-based; conditions: both, plasma
# [11] = Median Tmax of saquinavir mesylate following oral repeat dosing of 1000 mg Invirase Film-coated tablet in healthy human; format: ADME, organism-based; conditions: both, plasma, read-out: Median Tmax
# [12] = Minimum Tmax of saquinavir mesylate following oral repeat dosing of 1000 mg Invirase Film-coated tablet in healthy human; format: ADME, organism-based; conditions: both, plasma, read-out: Minimum Tmax
# [13] = Maximum Tmax of saquinavir mesylate following oral repeat dosing of 1000 mg Invirase Film-coated tablet in healthy human; format: ADME, organism-based; conditions: both, plasma, read-out: Maximum Tmax
# [14] = Mean exposure of saquinavir mesylate estimated by AUC(0-infinity) following oral repeat dosing of 1000 mg Invirase Hard Gel Capsules capsules in healthy woman; format: ADME, organism-based; conditions: female, human, plasma, read-out: AUC(0-infinity)
# [15] = Mean exposure of saquinavir mesylate estimated by AUC(0-infinity) following oral repeat dosing of 1000 mg Invirase Film-coated tablet in healthy woman; format: ADME, organism-based; conditions: female, human, plasma, read-out: AUC(0-infinity)
# [16] = Mean exposure of saquinavir mesylate estimated by AUC(0-infinity) following oral repeat dosing of 1000 mg Invirase Hard Gel Capsules capsules in healthy men; format: ADME, organism-based; conditions: male, human, plasma, read-out: AUC(0-infinity)
# [17] = Mean exposure of saquinavir mesylate estimated by AUC(0-infinity) following oral repeat dosing of 1000 mg Invirase Film-coated tablet in healthy men; format: ADME, organism-based; conditions: male, human, plasma, read-out: AUC(0-infinity)
# [18] = Mean exposure of saquinavir mesylate estimated by Cmax following oral repeat dosing of 1000 mg Invirase Hard Gel Capsules capsules in healthy woman; format: ADME, organism-based; conditions: female, human, plasma
# [19] = Mean exposure of saquinavir mesylate estimated by Cmax following oral repeat dosing of 1000 mg Invirase Film-coated tablet in healthy woman; format: ADME, organism-based; conditions: female, human, plasma
# [20] = Mean exposure of saquinavir mesylate estimated by Cmax following oral repeat dosing of 1000 mg Invirase Hard Gel Capsules capsules in healthy men; format: ADME, organism-based; conditions: male, human, plasma
# [21] = Mean exposure of saquinavir mesylate estimated by Cmax following oral repeat dosing of 1000 mg Invirase Film-coated tablet in healthy men; format: ADME, organism-based; conditions: male, human, plasma
# [22] = Mean exposure of saquinavir mesylate estimated by Cmax following oral repeat dosing of 1000 mg Invirase Hard Gel Capsules capsules in healthy human; format: ADME, organism-based; conditions: both, plasma
# [23] = Mean exposure of saquinavir mesylate estimated by Cmax following oral repeat dosing of 1000 mg Invirase Film-coated tablet in healthy human; format: ADME, organism-based; conditions: both, plasma
# clinical [24] = conditions: both, human, plasma, po, 1000 mg
# clinical [25] = conditions: both, human, plasma, po, 1000 mg; remark: listed apart in the source
# clinical [26] = conditions: both, human, plasma, po, 1000 mg; remark: listed apart in the source
# clinical [27] = conditions: both, human, plasma, po, 1000 mg; remark: listed apart in the source
compound,measurement,setting,value
CC(C)(C)NC(=O)[C@@H]1C[C@@H]2CCCC[C@@H]2CN1C[C@@H](O)[C@H](Cc1ccccc1)NC(=O)[C@H](CC(N)=O)NC(=O)c1ccc2ccccc2n1,AUC(0-inf),[1],1190 ng·h/mL
same,Cmax,[2],348 ng/mL
same,Cmax,[3],285 ng/mL
same,Tmax,[4],4.37 h
same,Minimum Tmax,[5],1 h
same,Tmax,[6],10 h
same,AUC(0-inf),[7],1510 ng·h/mL
same,AUC(0-inf),[8],1240 ng·h/mL
same,Cmax,[9],404 ng/mL
same,Cmax,[10],332 ng/mL
same,Tmax,[11],3.88 h
same,Tmax,[12],1.02 h
same,Tmax,[13],6 h
same,AUC(0-inf),[14],1090 ng·h/mL
same,AUC(0-inf),[15],1480 ng·h/mL
same,AUC(0-inf),[16],1040 ng·h/mL
same,AUC(0-inf),[17],1030 ng·h/mL
same,Cmax,[18],306 ng/mL
same,Cmax,[19],395 ng/mL
same,Cmax,[20],265 ng/mL
same,Cmax,[21],278 ng/mL
same,Cmax,[22],285 ng/mL
same,Cmax,[23],332 ng/mL
same,half-life,clinical [24],8.29 h
same,half-life,clinical [25],7.89 h
same,half-life,clinical [26],7.73 h
same,half-life,clinical [27],7.51 h
